These results are taken from patent US4061649A, “Clavulanic acid sulphates” (Beecham Group Limited, priority 1975, dated 1977).

Counter-ions that a name gives are not always drawn.

Series [1] relates to Enterobacter cloacae. Nature of the series: MIC / synergism, microtitre method (Example 42). The format is cell-based. The note with it: compound alone; inoculum 0.5 × 10^-2.
For series [2], the system named is Serratia marcescens. Nature of the series: MIC / synergism, microtitre method (Example 42). The format is cell-based. The note with it: compound alone; inoculum 0.5 × 10^-2.
For a further series, the system named is Staphylococcus aureus. Nature of the series: MIC / synergism, microtitre method (Example 42). Type of series: cell-based.
The test system of the next series is Proteus mirabilis 899. Type of series: cell-based.
A short description of series [3]: blood and tissue levels in female mice. The format is in vivo. The note with it: oral administration of 100 mg/kg.
In the next series the test system is Bacillus subtilis. Kind of series: MIC, microtitre method (Example 30). The note with it: approximate MIC; inoculum final dilution 0.5 × 10^-4.
For another series, the system named is Streptococcus faecalis. Kind of series: MIC, microtitre method (Example 30). The note with it: approximate MIC; inoculum final dilution 0.5 × 10^-4.
Series [4] relates to Streptococcus pyogenes CN 10. Kind of series: MIC, microtitre method (Example 30). The note with it: approximate MIC; inoculum final dilution 0.5 × 10^-4.
Experimental: (§2) The cultures were incubated overnight and the points of bacterial growth recorded next morning by observing the turbidity of the culture.
In series [5] the test system is Escherichia coli NCTC 10418. Kind of series: MIC, microtitre method (Example 30). The note with it: approximate MIC; inoculum final dilution 0.5 × 10^-4.
Experimental: as §2
The test system of another series is Klebsiella aerogenes. Kind of series: MIC, microtitre method (Example 30). The note with it: approximate MIC; inoculum final dilution 0.5 × 10^-4.
The next series deals with Klebsiella oxytocum. Nature of the series: MIC, microtitre method (Example 30). The note with it: approximate MIC; inoculum final dilution 0.5 × 10^-4.
Series [6] relates to Enterobacter aerogenes T 624. Nature of the series: MIC, microtitre method (Example 30). The note with it: approximate MIC; inoculum final dilution 0.5 × 10^-4.
Experimental: as §2
Series [7] has as its system Enterobacter cloacae. Kind of series: MIC, microtitre method (Example 30). The note with it: approximate MIC; inoculum final dilution 0.5 × 10^-4.
Experimental: as §2
The subject of another series is Acinetobacter anitratus. Nature of the series: MIC, microtitre method (Example 30). The note with it: approximate MIC; inoculum final dilution 0.5 × 10^-4.
The next series concerns Providentia stuartii. Nature of the series: MIC, microtitre method (Example 30). The note with it: approximate MIC; inoculum final dilution 0.5 × 10^-4.
Series [8] relates to Serratia marcescens. Nature of the series: MIC, microtitre method (Example 30). The note with it: approximate MIC; inoculum final dilution 0.5 × 10^-4.
Experimental: as §2
A further series deals with Proteus mirabilis 0977. Kind of series: MIC, microtitre method (Example 30). The note with it: approximate MIC; inoculum final dilution 0.5 × 10^-4.
Another series deals with Proteus vulgaris W090. Kind of series: MIC, microtitre method (Example 30). The note with it: approximate MIC; inoculum final dilution 0.5 × 10^-4.
The next series has as its system Salmonella typhimurium. Nature of the series: MIC, microtitre method (Example 30). The note with it: approximate MIC; inoculum final dilution 0.5 × 10^-4.
The test system of another series is Shigella sonnei. Kind of series: MIC, microtitre method (Example 30). The note with it: approximate MIC; inoculum final dilution 0.5 × 10^-4.
The test system of the next series is Pseudomonas aeruginosa A. Nature of the series: MIC, microtitre method (Example 30). The note with it: approximate MIC; inoculum final dilution 0.5 × 10^-4.
The test system of a further series is Bacillus subtilis A. Kind of series: MIC, method of Example 30 with 1/100 dilution of overnight broth (Example 46). The note with it: heavy inocula (1/100 of overnight broth); no unit in table (Example 30: μg/ml).
For a further series, the system named is Staph.aureus Oxford. The series is described as above. The note with it: heavy inocula (1/100 of overnight broth); no unit in table (Example 30: μg/ml).
The subject of a further series is Staph.aureus Russell. The series is described as above. The note with it: heavy inocula (1/100 of overnight broth); no unit in table (Example 30: μg/ml).
Series [9] deals with strains of Klebsiella aerogenes A. Kind of series: growth inhibition, penicillins with and without clavulanic acid or ester. The format is cell-based.
Series [10] has as its target T1, Escherischia coli JT4 β-lactamase (Escherichia coli, UniProt P62593).
T1 construct: host or cells: Escherichia coli JT4
Kind of series: β-lactamase I50, method of Belgian Pat. No. 827926. Type of series: biochemical. As for the experimental part: (§1) The I50 in μg/ml of this compound against several β-lactamaseswas determined using the method described in Belgian Pat. No. 827926 and the results are as follows: […]

In series [11] the target is T2, Pseudomonas Dalgleish β-lactamase (Pseudomonas aeruginosa, UniProt P16897).
T2 construct: host or cells: Pseudomonas (aeruginosa) Dalgleish
T2 sequence (P16897 18-288): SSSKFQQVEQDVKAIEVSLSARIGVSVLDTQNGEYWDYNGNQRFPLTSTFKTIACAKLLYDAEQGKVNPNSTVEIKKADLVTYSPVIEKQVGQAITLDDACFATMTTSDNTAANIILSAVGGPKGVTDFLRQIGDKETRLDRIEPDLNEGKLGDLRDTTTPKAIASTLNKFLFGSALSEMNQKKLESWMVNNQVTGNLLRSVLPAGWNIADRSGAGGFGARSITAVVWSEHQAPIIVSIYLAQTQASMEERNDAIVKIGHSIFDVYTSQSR
Kind of series: β-lactamase I50, method of Belgian Pat. No. 827926. Type of series: biochemical. As for the experimental part: as §1

Series [12] has as its system Staphylococcus aureus(Russell). Kind of series: MIC / synergism, microtitre method (Example 42). The format is cell-based.
Another series concerns bacteria. Nature of the series: tests for antibacterial activity in broth (Example 32). The note with it: possibly due to clavulanic acid liberated by slow hydrolysis. The format is cell-based.
Another series deals with Escherichia coli B 11. Nature of the series: MIC / synergism, microtitre method (Example 42). The note with it: compound alone; inoculum 0.5 × 10^-2. Type of series: cell-based.
Series [13] deals with strains of Staphylococcus aureus. Kind of series: growth inhibition. Type of series: cell-based.
The test system of series [14] is β-lactamase producing strains of Escherichia coli, Klebsiella aerognes and Staphylococcus aureus. Kind of series: synergism with ampicillin. Type of series: cell-based.
Series [15] has as its system β-lactamase producing strains of Proteus mirabilis and Staphylococcus aureus. Nature of the series: synergism with cephaloridine. The format is cell-based.
The mark [16] stands for this setting: in presence of 5μg/ml clavulanic acid sodium salt.

T1 sequence (P62593 24-286 limits assumed): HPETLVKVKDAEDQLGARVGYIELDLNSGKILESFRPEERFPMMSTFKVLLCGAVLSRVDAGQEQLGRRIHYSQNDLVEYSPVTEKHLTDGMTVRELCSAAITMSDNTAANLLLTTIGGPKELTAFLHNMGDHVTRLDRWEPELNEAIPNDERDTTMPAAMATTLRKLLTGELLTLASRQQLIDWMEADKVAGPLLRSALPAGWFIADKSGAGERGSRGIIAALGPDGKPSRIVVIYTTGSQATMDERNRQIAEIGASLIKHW
Experimental for Acinetobacter anitratus: as §2
Experimental for Bacillus subtilis A: as §2
Experimental for Klebsiella oxytocum: as §2
Experimental for Proteus mirabilis 0977: as §2
Experimental for Proteus vulgaris W090: as §2
Experimental for Providentia stuartii: as §2
Experimental for Pseudomonas aeruginosa A: as §2
Experimental for Salmonella typhimurium: as §2
Experimental for Shigella sonnei: as §2
Experimental for Staph.aureus Oxford: as §2
Experimental for Staph.aureus Russell: as §2
Experimental for Streptococcus faecalis: as §2

In the case of `O=C(O)[C@H]1/C(=C/CO)O[C@@H]2CC(=O)N21` [clavulanic acid sodium salt, 3-(β-hydroxyethylidine)-7-oxo-4-oxa-1-azabicyclo [3,2,0]heptane-2-carboxylic acid sodium salt], the “Minimum Inhibitory Concentrations” value in the series with Enterobacter cloacae [1] is 62 µg/mL; with Serratia marcescens [2] it was 125 µg/mL; with Staphylococcus aureus (compound alone, inoculum 0.5 × 10^-2) it was 62 µg/mL; in the series on Proteus mirabilis 899, less than 500 µg/mL. Further, the “levels of clavulanic acid” value in series [3] is on record as “useful levels”. In addition, the “Minimum Inhibitory Concentration” value with Bacillus subtilis is 62 µg/mL; with Streptococcus faecalis, more than 500 µg/mL; in series [4], 125 µg/mL; in series [5], 31 µg/mL; in the series on Klebsiella aerogenes it was 31 to 62 µg/mL; with Klebsiella oxytocum, 62 µg/mL. Moreover, the “Minimum Inhibitory Concentration” value in [6] amounted to 31 µg/mL; in the series with Enterobacter cloacae [7], 62 µg/mL; in the series on Acinetobacter anitratus it was 125 µg/mL; in the series on Providentia stuartii it was 125 µg/mL; in the series with Serratia marcescens [8], 125 µg/mL; in the series on Proteus mirabilis 0977, 62 µg/mL. The “Minimum Inhibitory Concentration” value with Proteus vulgaris W090 turned out to be 31 µg/mL; in the series with Salmonella typhimurium, 31 µg/mL; with Shigella sonnei, 62 µg/mL; with Pseudomonas aeruginosa A it was 500 µg/mL. Also, the MIC is 62 with Bacillus subtilis A, 15 with Staph.aureus Oxford and 15 against Staph.aureus Russell.
As for `CC1(C)S[C@@H]2[C@H](NC(=O)Cc3ccccc3)C(=O)N2[C@H]1C(=O)O` [Benzylpenicillin, benzylpenicillin, reference compound], the “concentration by which growth is inhibited” value in series [9] (when 5 μg/ml. of clavulanic acid is also present) was “less than 12.5 μg/ml”.
The term IC50 denotes the concentration that inhibits the measured activity by half. A lower IC50 goes with higher potency. For the compound `O=C(OCc1ccccc1)[C@H]1/C(=C/COS(=O)(=O)O)O[C@@H]2CC(=O)N21` [Example 50, Benzyl Clavulanate -- O -- sulphonate trimethylamine salt], the IC50 in series [10] was 9.21 µM; in series [11] it was 11.4 µM.
For `O=C(Cc1cccs1)N[C@@H]1C(=O)N2C(C(=O)[O-])=C(C[n+]3ccccc3)CS[C@H]12` [Cephaloridine, cephaloridine], the “Minimum Inhibitory Concentrations” value in [12] (setting [16]) is more than 0.03 µg/mL; in series [12] (synergist (clavulanic acid sodium salt) added at 1 μg/ml. instead of 5 μg/ml., compared with the value at 5 μg/ml), “Same value”; in the series on Staphylococcus aureus (setting [16]), 3.7 µg/mL.
Turning to `COC(=O)[C@H]1/C(=C/CO)O[C@@H]2CC(=O)N21` [clavulanic acid methyl ester], the “antibacterial activity in broth” value with bacteria is “broad spectrum activity but of a lower order than shown by clavulanic acid”.
As for `CC1(C)S[C@@H]2[C@H](NC(=O)[C@H](N)c3ccccc3)C(=O)N2[C@H]1C(=O)O` [Ampicillin, ampicillin, reference compound], the “Minimum Inhibitory Concentrations” value in the series on Escherichia coli B 11 is more than 500 µg/mL; in the series with Enterobacter cloacae [1], 250 µg/mL.
As for `O=C(O)[C@H]1/C(=C/CO)O[C@@H]2CC(=O)N21` [clavulanic acid, Z-(2R,5R)-3-(β-hydroxyethylidene)-7-oxo-4-oxa-1-azabicyclo[3,2,0]heptane-2-carboxylic acid], the MIC in [9] (Klebsiella aerogenes, compound alone, read-out: concentration by which growth is not inhibited) is more than 10 µg/mL. The inhibition of growth entry in series [13] is “able to inhibit the growth”. The “synergism of the antibacterial effect of ampicillin” value in series [14] is recorded as “able to synergyze the antibacterial effect of ampicillin”. Moreover, the “synergism of the antibacterial effect of cephaloridine” value in series [15] was “able to synergyze the antibacterial effect of cephaloridine”.
